Legend:
iPS cells 201B7 strain [1] = assay: Flow cytometry of Brachyury/CD56 mesodermal markers, differentiation-induction in medium with β-NMN (Example 3); assay type: cell-based, human
Protocol: The effects of β-NMN on the mesodermal differentiation-induction of iPS cells were examined. The 201B7 strain was used as the iPS cells. The iPS cells were seeded in a 24-well plate coated with Matrigel (manufactured by Corning Incorporated) according to the manufacturer's protocol at 1×10^5 cells/well. The cells in the 24-well plate were cultured in a culture medium for iPS cells adjusted to have a final concentration of Rock inhibitor of 10 μM for 1 day. From the 1st day after seeding, the culture medium was replaced with a culture medium prepared by adjusting a mesoderm differentiation-inducing culture medium of “STEMdiff Trilineage Differentiation kit” (manufactured by STEMCELL Technologies) to have a final concentration of β-NMN of 0, 0.1, 0.25, or 1 mM for 1 day. […] Then, the cells were stained with a fluorescence-labeled anti-Brachyury antibody (manufactured by Merck, clone 3E4.2) and a fluorescence-labeled anti-CD56 antibody (manufactured by Biolegend, clone HCD56). After washing the stained cells, a flow cytometer “FACS caliber” (manufactured by Becton, Dickinson and Company) was used to analyze the fluorescence intensity of the anti-Brachyury antibody and the fluorescence intensity of the anti-CD56 antibody in each sample. […]

iPS cells 253G1 strain = assay: Flow cytometry of Sox17 after endodermal differentiation-induction following undifferentiated culture with β-NMN (Example 5); assay type: cell-based; conditions: β-NMN 0.25 or 1 mM during undifferentiated culture, then endodermal differentiation-induction; 5th or 7th day; versus absence of β-NMN
Protocol: The effects of culturing in the presence of β-NMN before induction of differentiation on the endodermal differentiation-induction of iPS cells was examined. As the iPS cells, the 253G1 strain was used. iPS cells seeded on a culture dish coated with Matrigel (manufactured by Corning Incorporated) according to the manufacturer's protocol were cultured in a culture medium prepared by adjusting a culture medium for iPS cells to have a final concentration of β-NMN 0, 0.25 or 1 mM, and a final concentration of Rock inhibitor of 10 μM for 1 day. From the 1st day after seeding, the culture medium was replaced every day with a culture medium obtained by removing the Rock inhibitor from the culture medium at the time of seeding. When the confluent reached 70 to 80%, the iPS cells were detached from the culture dish and collected. The collected iPS cells were seeded at 3×10^5 cells/well in a 24-well plate coated with Matrigel (manufactured by Corning Incorporated) according to the manufacturer's protocol. […] After washing the stained cells, a flow cytometer “FACS caliber” (manufactured by Becton, Dickinson and Company) was used to analyze the fluorescence intensity of the anti-Sox17 antibody and the fluorescence intensity of the anti-FoxA2 antibody in each sample. […]

iPS cells 201B7 strain [2] = assay: Cell number in mesodermal differentiation-induction after undifferentiated culture with β-NMN (Example 6); assay type: cell-based, human; conditions: β-NMN 0.25 or 1 mM in culture medium for iPS cells before mesodermal differentiation-induction; 7th day after seeding; versus no β-NMN
Protocol: The effects of culturing in the presence of β-NMN before induction of differentiation on the mesodermal differentiation-induction of iPS cells was examined. As the iPS cells, the 201B7 strain was used. The iPS cells were cultured in a culture dish in the same manner as in Example 5, and when the confluent reached 70 to 80%, the iPS cells were detached from the culture dish and collected. The collected iPS cells were seeded at 1×10^5 cells/well in a 24-well plate coated with Matrigel (manufactured by Corning Incorporated) according to the manufacturer's protocol. The cells in the 24-well plate were cultured for 1 day in a culture medium prepared by removing β-NMN from the culture medium when culturing in the culture dish and adjusting to have a final concentration of Rock inhibitor of 10 μM. From the 1st day after seeding, the medium was replaced every day with a culture medium for mesodermal differentiation-induction of “STEMdiff Trilineage Differentiation kit” (manufactured by STEMCELL Technologies). The cells of the 7th day after seeding were sampled and the cell numbers were counted. […]

NC(=O)c1ccc[n+]([C@@H]2O[C@H](COP(=O)([O-])O)[C@@H](O)[C@H]2O)c1 [β-NMN, β-nicotinamide mononucleotide]
ratio of Brachyury-positive CD56-positive cells (iPS cells 201B7 strain [1]; mesodermal differentiation-inducing medium with β-NMN 0.1, 0.25 or 1 mM, 5th or 7th day, versus absence of β-NMN): no clear difference | ratio of Brachyury-positive CD56-positive cells (iPS cells 201B7 strain [1]; β-NMN added at 1 mM, versus culturing without β-NMN): obviously lower | ratio of Sox17-positive cells (iPS cells 253G1 strain): higher | number of the cells (iPS cells 201B7 strain [2]): larger

— US11814652B2, “Pluripotent stem cell differentiation-promoting agent” (Oriental Yeast Co., Ltd., priority 2018, dated 2023)
